According to publication PMC3110009 (ACS medicinal chemistry letters, 2011):

What was measured:
[1] = target: dopamine D2 receptor (D2^high / D2^low) (Rattus norvegicus, UniProt P61169); format: binding
[2] = target: dopamine D3 receptor (human D3 clone) (Homo sapiens, UniProt P35462); assay: Competitive binding at human D3 clone, [3H]domperidone
Sequence of dopamine D3 receptor (human D3 clone) (P35462 whole entry): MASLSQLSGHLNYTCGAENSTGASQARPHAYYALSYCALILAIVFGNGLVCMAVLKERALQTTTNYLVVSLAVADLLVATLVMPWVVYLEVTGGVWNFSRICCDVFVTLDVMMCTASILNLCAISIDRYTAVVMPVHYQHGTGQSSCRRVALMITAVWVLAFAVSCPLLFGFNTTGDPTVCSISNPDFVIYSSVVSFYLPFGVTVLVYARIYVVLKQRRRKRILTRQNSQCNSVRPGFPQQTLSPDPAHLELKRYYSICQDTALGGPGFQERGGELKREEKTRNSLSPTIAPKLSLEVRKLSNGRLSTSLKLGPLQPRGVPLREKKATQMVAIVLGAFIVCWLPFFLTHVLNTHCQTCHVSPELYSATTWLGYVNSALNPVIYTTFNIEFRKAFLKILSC

Sequence of dopamine D2 receptor (D2^high / D2^low) (P61169 1-415 isoform P61169-2): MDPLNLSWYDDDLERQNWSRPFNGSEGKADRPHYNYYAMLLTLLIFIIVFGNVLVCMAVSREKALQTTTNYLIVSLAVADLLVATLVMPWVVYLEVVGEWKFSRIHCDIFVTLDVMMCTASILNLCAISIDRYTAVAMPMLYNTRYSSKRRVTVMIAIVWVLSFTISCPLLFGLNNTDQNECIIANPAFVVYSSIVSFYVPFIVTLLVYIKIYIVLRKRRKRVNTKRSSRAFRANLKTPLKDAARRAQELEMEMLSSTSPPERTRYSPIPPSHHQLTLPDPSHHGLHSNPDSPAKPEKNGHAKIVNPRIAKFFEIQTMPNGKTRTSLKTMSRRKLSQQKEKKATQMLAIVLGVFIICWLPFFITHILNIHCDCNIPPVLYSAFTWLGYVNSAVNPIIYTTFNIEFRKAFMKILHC

`CCN1CCc2cc(OCCCF)cc3c2[C@H]1Cc1ccc(O)c(O)c1-3` [Compound 8c, N-ethyl-2-fluoropropanoxy catechol-aporphine] was tested, and the “fold increase in D2^high affinity” value ([1]; in comparison to 8a) was ~4 fold.

In the case of `CCN1CCc2cc(OCCF)cc3c2[C@H]1Cc1ccc(O)c(O)c1-3` [Compound 8d], the “fold improvement in D2^high binding affinity” value ([1]; 2-fluoroethoxy analog versus N-ethyl 2-fluoropropanoxy analog 8c) is reported as “more than 2 fold”.

`CN1CCc2cc(OCCCF)cc3c2[C@H]1Cc1ccc(O)c(O)c1-3` [Compound 8e] was tested, and the “Ki D3^high” value ([2]; high affinity state of D3) was “did not exhibit any D3^high affinity”.

`CN1CCc2cc(OCCF)cc3c2[C@H]1Cc1ccc(O)c(O)c1-3` [Compound 8f] was tested, and the “Ki D3 [3H]domperidone” value ([2]; human D3 clone, SD) was “no appreciable affinity to D3”.
